Source: patent publication US20090149429A1, “ANTIVIRAL COMPOUNDS” (Myriad Genetics, Incorporated, priority 2005, published 2009)

System: mock-infected MT-4 cells
Assay: Compound toxicity in mock-infected MT-4 cells (WST-1 assay)
Type: cell-based
Conditions: four days incubation, read-out: TC50 (concentration of compound that results in death of 50% of the host cells)
Description: The HTLV-1 transformed T cell line, MT-4, is highly susceptible to HIV-1 infection. Anti-HIV-1 agents were evaluated in this target cell line by protection from the HIV-induced cytopathic effect. In this assay, viability of both HIV-1 and mock-infected cells was assessed in a […] assay that monitors the ability of metabolically-active cells to reduce the tetrazolium salt WST-1. Cytoprotection by antiviral compounds is indicated by the positive readout of increased WST-1 cleavage.
Briefly, exponentially growing MT-4 cells were mock-infected or batch-infected with the HIV-1 laboratory strain, NL4-3, at a multiplicity of infection of 0.0005. Following a two hour infection, the cells were washed to remove unbound virus and plated in the presence of increasing concentrations of compound. After four days incubation, cytoprotection in the infected cells and compound toxicity in mock-infected cells were analyzed using the WST-1 assay.

Question: Which CC50 does the source give for C=C(C)[C@@H]1CC[C@]2(C(=O)NCc3ccc(C(=O)O)cc3)CC[C@]3(C)[C@H](CC[C@@H]4[C@@]5(C)CC[C@H](OC(=O)CC(C)(C)C(=O)O)C(C)(C)[C@@H]5CC[C@]43C)[C@@H]12 [Compound 37] here?
Answer: ~7.7 µM

Question: How did the CC50 turn out when C=C(C)[C@@H]1CC[C@]2(C(=O)NCc3ccccc3C(=O)O)CC[C@]3(C)[C@H](CC[C@@H]4[C@@]5(C)CC[C@H](OC(=O)CC(C)(C)C(=O)O)C(C)(C)[C@@H]5CC[C@]43C)[C@@H]12 [Compound 39] was run?
Answer: ~6.3 µM
